Reference: patent US20210393932A1, “DERMAL PATCHES AND GLASS SWABS FOR APPLICATION OF TOPICAL IMMUNOSENSITIZERS” (Squarex, LLC, priority 2020, published 2021)
“And” between values parts separate entries of the source, which are not always exact repeats. Equal entries are not always repeated.

Assays:
[1] = system: PBMCs in the presence of HSV-1; test: Immune gene expression and proliferation of PBMCs from subjects dosed once with SADBE; assay type: cell-based, human
Text: Introduction: Differences in immune characteristics, including immune gene expression by peripheral blood mononuclear cells (PBMCs), correlating with herpes labialis and good or poor immune control of herpes simplex virus type 1 (HSV-1) (i.e., frequency of herpes labialis episodes), and how these characteristics change after dosing with squaric acid dibutyl ester (SADBE), were investigated. Methods: PBMCs were collected from persons positive for IgG against HSV-1 and having frequent (self-reported 6 or more episodes in the prior 12 months), infrequent (1 or 2 episodes in the prior 12 months), or no herpes labialis outbreaks in the prior 12 months. The PBMCs were tested for proliferation against HSV-1 and a fungal antigen (Candida) and immune gene expression in the presence of HSV-1 and Candida. On day 1 after blood collection the subjects with frequent outbreaks were dosed topically on the arm once with 2% SADBE in DMSO, and their PBMCs were collected and tested 2 weeks later and 8 weeks later.
Doses were applied by dipping a cotton swab in a 1-ml vial of liquid study medication, then swabbing a spot on the inner aspect of the upper arm over an area of about 10 to 15 mm diameter encircled by petroleum jelly. After application, the spot was covered by TEGADERM™ dressing, and subjects were advised to remove the dressing and wipe the spot with a wet cloth 3 hours later. The weight of the vial of study medication with the vial standing in it was measured immediately before and immediately after dosing each subject. The difference was the net mass of drug applied. In most cases, 10 mg to 20 mg of drug solution was applied to the arm.

pig skin = test: Skin irritation (erythema, edema) after SADBE dermal patches in swine; assay type: in vivo; conditions: for Average high erythema score: across all patches, doses and exposure times
Text: An additional purpose was to assess immediate and delayed skin irritation, including erythema and edema on the pig skin over 4 weeks after dosing. Skin irritation was scored as in Table 5. [table] It was scored 3 times per week at each patch application site for four weeks. The scores shown are the erythema score at the time of patch removal, and then the highest of the 3 scores taken each week for each patch site.

guinea pig skin = test: Cutaneous irritation (Draize, Primary Irritation Index) after SADBE dermal patch in guinea pig; assay type: in vivo; conditions: for time to return to non-irritating levels post-dermal-application / time of peak cutaneous irritation: re-challenge
Experimental: Thirty (30) guinea pigs (15 female and 15 male) were utilized for this nonGLP study. Prior to and post dosing (dermal patches loaded with 20 microliters of 2, 6, or 18% SADBE drug solution) body weights, group food consumption, and Draize scoring for erythema, eschar formation, and edema at the dose site were be recorded. The dermal patch loaded with SADBE was applied to animals, and left in place for ˜12 hours plus/minus 1 hour. Following the ˜12 hour dosing period, patch sites was assessed by Draize scoring. […] After the 28 days assessment period, re challenge was performed, a second patch (not treated during the induction phase) was applied and assessed by Draize scoring.
Cutaneous irritation at the test site was observed and scored each day of the study by the Draize Scale for both Erythema & Eschar and Edema. The scale for each is in Tables 9 and 10, each on a 0-4 scale. The cumulative Erythema & Eschar and Edema score was the Primary Irritation Index score, which would therefore be on a 0-8 scale.
To assess the effect of the test article, SADBE (2%, 6%, and 18% in DMSO), on cutaneous skin irritation potential and sensitivity in guinea pig, Draize scoring system was used for dose site evaluation for erythema and eschar responses and for Edema. The test article (20 ul) was loaded on a dermal patch and applied to shaved guinea pig skin for 12 hrs (induction phase). The first dose site evaluation was performed for 30 days post application. A second dose was applied and dose site evaluation was also performed for approximately 5 weeks (challenge phase).
The Primary Irritation Index (pII) for each test article dose was calculated to assess the irritation potential. The Primary Irritation Index (pII) is the mean of the primary irritation score. The primary irritation score is the sum of the erythema/eschar score and the edema score, resulting in a maximal irritation potential of 8. The daily primary irritation index (pII) for each test article dose over the course of the study was calculated (FIG. 4). The pII is used to categorize the test article treatments as negligible to not irritating (0-0.9), slight (0.9-1.9), moderate (2-4.9) or severe (5-8) irritation potential. […] (FIG. 4.)

[2] = system: herpes labialis (cold sores or oral herpes); conditions: cited from earlier work
[3] = Residual SADBE and SAMBE in patches after 12 hours on mini-pigs; assay type: in vivo, Gottingen miniswine; conditions: for SADBE as % of expected (remaining in patch): 12 hours on mini-pigs
Experimental: Patches were removed from the pigs at the indicated times and immediately the reservoir portion of the patch was cut out and placed in a 50 ml tube with 10 ml of DMSO. The tubes of DMSO with patches were transported to the Squarex laboratory, shaken at 200 rpm for 30 minutes to overnight, and then the DMSO from each tube was placed in an injection vial and analyzed for SADBE content by HPLC on a C18 column with the program SADBE3-50 ul. SADBE elutes in this program at about 24.0 minutes and absorbs at 255 nm, so the area of the 24.0 min peak at 255 nm was used to quantify SADBE. The SADBE degradation product squaric acid monobutyl ester (SAMBE) was also quantified by 255 nm area under the curve at the elution time of 12.7 minutes.

[4] = single topical dose of 2% SADBE in DMSO to the arm, 56 days after dose vs day 1

CCCCOc1c(OCCCC)c(=O)c1=O [SADBE, squaric acid dibutyl ester]
PBMC gene expression or proliferation measures vs day 1 ([1]; 2 weeks after the one dose of 2% SADBE): did not differ | IFNG expression in PBMCs in the presence of HSV-1 virus [1, 4]: increasing | IL5 expression in PBMCs in the presence of HSV-1 virus [1, 4]: decreasing | Average erythema score weeks 0-3 (pig skin; 20 ul of 2% SADBE, 1 hour exposure): 0 | Average erythema score weeks 0-3 (pig skin; 20 ul of 2% SADBE, 3 hours exposure): 0.83 | Average erythema score weeks 0-3 (pig skin; 20 ul of 2% SADBE, 6 hours exposure): 0.92 | Average erythema score weeks 0-3 (pig skin; 20 ul of 2% SADBE, 24 hours exposure): 1.5 | Average erythema score weeks 0-3 (pig skin; 50 ul of 2% SADBE, 1 hour exposure): 1.5 | Average erythema score weeks 0-3 (pig skin; 50 ul of 2% SADBE, 3 hours exposure): 2.125 | Average erythema score weeks 0-3 (pig skin; 50 ul of 2% SADBE, 6 hours exposure): 1.92 | Average erythema score weeks 0-3 (pig skin; 50 ul of 2% SADBE, 24 hours exposure): 2.5 | Average erythema score weeks 0-3 (pig skin; 80 ul of 2% SADBE, 1 hour exposure): 1.375 | Average erythema score weeks 0-3 (pig skin; 80 ul of 2% SADBE, 3 hours exposure): 1.625 | Average erythema score weeks 0-3 (pig skin; 80 ul of 2% SADBE, 6 hours exposure): 1.25 | Average erythema score weeks 0-3 (pig skin; 80 ul of 2% SADBE, 24 hours exposure): 2.25 | Average high erythema score (pig skin; Week 1): 1.05 | Average high erythema score (pig skin; Week 2): 2.60 | Average high erythema score (pig skin; Week 3): 1.73 | Average high erythema score (pig skin; Week 4): 0.00 | edema at drug application site (pig skin; any site, any time after patch application and removal): No pigs had edema | Average high erythema score (pig skin; at patch removal): 0.63 | irritation category by Primary Irritation Index (pII) (guinea pig skin; 2% SADBE, 20 ul patch, 12 h, first dose): slightly irritating | duration of slight cutaneous irritation (guinea pig skin; 2% SADBE, induction): > 17 days | time to return to non-irritating levels post-dermal-application (guinea pig skin; 2% SADBE): ~9 days | irritation category by Primary Irritation Index (pII) (guinea pig skin; 2% SADBE, re-challenge (second dose)): moderately irritating | duration of slight to moderate cutaneous irritation (guinea pig skin; 2% SADBE, re-challenge at naive site): ~5 days | irritation category by Primary Irritation Index (pII) (guinea pig skin; 6% SADBE, 20 ul patch, 12 h, first dose): moderately irritating | duration of moderate cutaneous irritation (guinea pig skin; 6% SADBE, induction): ~18 days | time to return to slight irritation and not irritating levels (guinea pig skin; 6% SADBE, induction): ~23 days | time of peak cutaneous irritation (guinea pig skin; 6% SADBE): ~5 days | time to return to non-irritating levels post-dermal-application (guinea pig skin; 6% SADBE): ~14 days | irritation category by Primary Irritation Index (pII) (guinea pig skin; 6% SADBE, re-challenge (second dose)): moderately irritating | irritation category by Primary Irritation Index (pII) (guinea pig skin; 18% SADBE, 20 ul patch, 12 h, first dose): severely irritating | duration of moderate to severe cutaneous irritation (guinea pig skin; 18% SADBE, induction): ~21 days | time to return to slight irritation and not irritating levels post-dosing (guinea pig skin; 18% SADBE, induction): ~27 days | time of peak cutaneous irritation (guinea pig skin; 18% SADBE): ~8 days | time to return to non-irritating levels post-dermal-application (guinea pig skin; 18% SADBE): ~19 days | irritation category by Primary Irritation Index (pII) (guinea pig skin; 18% SADBE, re-challenge (second dose)): moderately irritating | time for which a single dose to the arm prevents outbreaks ([2]; SADBE-DMSO solution (Palli et al., Chang et al.)): ≥ 3 months | number of cold sore outbreaks ([2]; single dose applied to the arm, for about four months (Palli et al., Chang et al.)): significantly decrease number of cold sore outbreaks | SADBE apparently transferred into the mini pig skin ([3]; 2% patches, 12 hours): about 89% | SADBE as % of expected (remaining in patch) ([3]; 2% patches, individual animals): 7.0% and 14.6% | SADBE as % of expected (remaining in patch) ([3]; 6% patches, average of 2 animals): 35% and 35.4% | SADBE as % of expected (remaining in patch) ([3]; 6% patches, individual animals): 29.9% and 40.8% | SADBE as % of expected (remaining in patch) ([3]; 18% patches, average of 2 animals): 65% and 65.5% | SADBE as % of expected (remaining in patch) ([3]; 18% patches, individual animals): 65.2% and 65.8%
